Data as given in patent US20090068169A1, “2,4,6-triamino-s-triazine-based compounds which bind to the tail (fc) portion of immunoglobulins and their use” (priority 2004, published 2009).
Marks after values point to notes of the source that are not given here.

What was measured:
Fc portion of human IgG = target: T1, Fc portion of human IgG; experiment: Competitive protein A binding ELISA; conditions: for IC50: inhibition of binding of protein A to HRP-human IgG, assay in PBS; for binding activity, in words: refers to Table 1, bis-aminoanilino arrangement
T1 construct: fused on or other part: horseradish peroxidase chemically conjugated to the IgG (detection label)
Experimental: The competitive protein A binding ELISA assay was performed on a 96-well plate MAXISORP® surface to enhance the binding of protein A to the bottom of the plate. The wells were coated with 100 μL of protein A (0.8 μg) and incubated overnight at 4° C. After incubation, unbound protein A was removed by three washes with phosphate buffer saline (PBS). The plate was then incubated with 100 μL/well of a 2% solution of bovine serum albumin (BSA) for 1 h at 37° C. to block non specific protein binding. After incubation, the plate was washed three times with PBS. 50 μL of compound or protein A, diluted in PBS or PBS-20% DMSO at appropriate concentration, were added to the wells followed by addition of 50 μL of peroxidase-conjugated human IgG (HRP-IgG). After 1 h incubation at 37° C., the plate was washed three times with PBS to remove unbound HRP-IgG. […] The plate was then read at 405 nm on a EL 800, universal microplate reader (Bio-Tek). Data was analyzed in Microsoft Excel and the concentration of compound which inhibits 50% binding of protein A (IC50) was calculated using Prism software.

[1] = tested on: oxazolone-induced delayed-type hypersensitivity (DTH) in mice; experiment: Oxazolone-induced delayed-type hypersensitivity (DTH); type: in vivo; conditions: intravenous; for inhibition of the inflammation after the second challenge of oxazolone: FIG. 2, second challenge; for Activity (ear thickness inhibition) First Challenge: first oxazolone challenge; for Activity (ear thickness inhibition) First Challenge / Activity (ear thickness inhibition) Second Challenge: n.s. = non significant effect; for Activity (ear thickness inhibition) Second Challenge: second oxazolone challenge
Experimental: Compounds were tested for their ability to treat oxazolone-induced delayed-type hypersensitivity (DTH) in mice. On day 0, mice were sensitized with 100 μL of oxazolone in 5% acetone. On day 0, 1 and 2, mice were treated by intravenous administration of the vehicle (control) or methotrexate (MTX; positive control) or the compound at 50 mg/kg (compound 3) or 25 mg/kg (compound 1 or 10). Mice were challenged with an application of 50 μL of oxazolone on the surface of the right ear (first challenge, day 3; second challenge, day 10). Ear thickness was measured on day 4 to day 7, and on day 11 to 14. Redness and crust formation was also observed. Mice were sacrificed on day 14. TDTH (CD4) cells play an important role in regulating the intensity of the DTH response. Compounds may exert an inhibitory influence on the DTH response through its inhibition of T-cell activation and DNA, RNA and/or protein synthesis.

[2] = tested on: oxazolone-induced delayed-type hypersensitivity (DTH) in mice; experiment: as above; type: in vivo; conditions: per os; for Activity (ear thickness inhibition) First Challenge: first oxazolone challenge; for Activity (ear thickness inhibition) Second Challenge: second oxazolone challenge, n.s. = non significant effect

| Compound | IC50 (Fc portion of human IgG) | other results |
| --- | --- | --- |
| Nc1ccc(CCNc2nc(NCCCCCCO)nc(Nc3cccc(N)c3)n2)cc1 [Compound 1] | 93 nM | inhibition of the inflammation after the second challenge of oxazolone [1]: significant inhibition of the inflammation; Activity (ear thickness inhibition) First Challenge [1]: No effect; oral activity on DTH [2]: oral activity; Activity (ear thickness inhibition) First Challenge [2]: ↓ per os (p = 0.003); Activity (ear thickness inhibition) Second Challenge [2]: ↓ (n.s.)* |
| Nc1ccc(CNc2nc(NCCCCCCO)nc(Nc3cccc(N)c3)n2)cc1 [Compound 2] | 148 nM | Activity (ear thickness inhibition) Second Challenge [1]: No effect |
| NCCCCCCNc1nc(NCCc2ccc(N)cc2)nc(Nc2cccc(N)c2)n1 [Compound 4] | 300 nM |  |
| NCCNc1nc(NCCc2ccc(N)cc2)nc(Nc2cccc(N)c2)n1 [Compound 5] | 377 nM | oral activity on DTH [2]: oral activity; Activity (ear thickness inhibition) First Challenge [2]: ↓ per os (p = 0.008); Activity (ear thickness inhibition) Second Challenge [2]: ↓ (n.s.) |
| Nc1ccc(CCNc2nc(Nc3cccc(N)c3)nc(NC3CCC3)n2)cc1 [Compound 8] | 53 nM |  |
| Nc1ccc(CCNc2nc(Nc3cccc(N)c3)nc(NC3CCCC3)n2)cc1 [Compound 9] | 131 nM | Activity (ear thickness inhibition) Second Challenge [1]: No effect |
| Nc1ccc(CCNc2nc(NCc3cccc(N)c3)nc(Nc3cccc(N)c3)n2)cc1 [Compound 10] | 106 nM | Activity (ear thickness inhibition) Second Challenge [1]: No effect; oral activity on DTH [2]: oral activity; Activity (ear thickness inhibition) First Challenge [2]: No effect per os |
| Nc1cccc(CNc2nc(Nc3cccc(N)c3)nc(Nc3cccc(N)c3)n2)c1 [Compound 12] | 3 nM | binding activity, in words (Fc portion of human IgG): potent binding activity |
| Nc1ccc(CNc2nc(Nc3cccc(N)c3)nc(Nc3cccc(N)c3)n2)cc1 [Compound 13] | 1 nM | binding activity, in words (Fc portion of human IgG): potent binding activity |
| COc1cccc(Nc2nc(NCCN)nc(Nc3cccc(N)c3)n2)c1 [Compound 14] | 306 nM |  |
| COc1ccc(Nc2nc(NCCN)nc(Nc3cccc(N)c3)n2)cc1 [Compound 15] | 415 nM |  |
| Nc1cccc(Nc2nc(NCCCCCCO)nc(Nc3cccc(N)c3)n2)c1 [Compound 19] | 15 nM | Activity (ear thickness inhibition) First Challenge [1]: ↓ (n.s.); Activity (ear thickness inhibition) Second Challenge [1]: No effect |
| Nc1ccc(CCNc2nc(Nc3cccc(N)c3)nc(Nc3cccc(N)c3)n2)cc1 [Compound 20] | 65 nM |  |
| NCCNc1nc(Nc2cccc(N)c2)nc(Nc2cccc(N)c2)n1 [Compound 21] | 114 nM |  |
| COc1cccc(Nc2nc(NCCO)nc(Nc3cccc(N)c3)n2)c1 [Compound 22] | 63 nM |  |
| COc1ccc(Nc2nc(NCCO)nc(Nc3cccc(N)c3)n2)cc1 [Compound 23] | 86 nM |  |
| COc1cccc(Nc2nc(NCC3CC3)nc(Nc3cccc(N)c3)n2)c1 [Compound 24] | 243 nM |  |
| COc1ccc(Nc2nc(NCC3CC3)nc(Nc3cccc(N)c3)n2)cc1 [Compound 25] | 75 nM |  |
| COc1ccc(Nc2nc(Nc3cccc(N)c3)nc(NC3CC3)n2)cc1 [Compound 26] | 126 nM |  |
| Nc1cccc(Nc2nc(NCCO)nc(Nc3ccc(F)cc3)n2)c1 [Compound 28] | 62 nM | Activity (ear thickness inhibition) First Challenge [1]: ↓ (n.s.) |
| Nc1cccc(Nc2nc(NCCO)nc(NCc3cccc(F)c3)n2)c1 [Compound 29] | 222 nM |  |
| Nc1cccc(CCNc2nc(NCC3CC3)nc(Nc3cccc(N)c3)n2)c1 [Compound 30] | 88 nM |  |
| Nc1cccc(Nc2nc(Nc3cccc(N)c3)nc(NC3CC3)n2)c1 [Compound 32] | 38 nM |  |
| Nc1cccc(Nc2nc(NCCO)nc(Nc3cccc(F)c3)n2)c1 [Compound 41] | 36 nM |  |
| Nc1cccc(Nc2nc(NCCO)nc(NCc3ccc(F)cc3)n2)c1 [Compound 42] | 39 nM |  |
| Nc1cccc(Nc2nc(NCCO)nc(NCc3ccccc3F)n2)c1 [Compound 43] | 86 nM |  |
| COc1cccc(Nc2nc(Nc3cccc(N)c3)nc(Nc3cccc(OC)c3)n2)c1 [Compound 45] | 469 nM |  |
| Protein A (Control): Staphylococcal protein A, cell-surface bacterial protein which binds the Fc (tail) portion of most antibodies [reference compound] | 187 nM |  |

Further lines, with some results ahead:

| IC50 (Fc portion of human IgG) | Compound | other results |
| --- | --- | --- |
| 106 nM | Nc1ccc(CCNc2nc(NCCCCO)nc(Nc3cccc(N)c3)n2)cc1 [Compound 3] | inhibition of the inflammation after the second challenge of oxazolone [1]: significant inhibition of the inflammation; oral activity on DTH [2]: oral activity; Activity (ear thickness inhibition) First Challenge [2]: ↓ per os (p = 0.03); Activity (ear thickness inhibition) Second Challenge [2]: ↓ (n.s.) |
| 85 nM | Nc1ccc(CCNc2nc(NCc3ccc(N)cc3)nc(Nc3cccc(N)c3)n2)cc1 [Compound 11] |  |
| 159 nM | Nc1cccc(CNc2nc(N)nc(Nc3cccc(N)c3)n2)c1 [Compound 16] | Activity (ear thickness inhibition) First Challenge [1]: No effect; Activity (ear thickness inhibition) Second Challenge [1]: No effect |
| 65 nM | Nc1ccc(CNc2nc(N)nc(Nc3cccc(N)c3)n2)cc1 [Compound 17] |  |
| 97 nM | Nc1cccc(Nc2nc(N)nc(NCc3ccccc3N)n2)c1 [Compound 18] |  |
| 292 nM | COc1ccc(Nc2nc(N)nc(Nc3cccc(N)c3)n2)cc1 [Compound 27] |  |
| 38 nM | Nc1cccc(Nc2nc(NCC3CC3)nc(Nc3cccc(N)c3)n2)c1 [Compound 31] | Activity (ear thickness inhibition) Second Challenge [1]: ↓ (n.s.) |
| 170 nM | Nc1cccc(Nc2nc(N)nc(Nc3cccc(N)c3)n2)c1 [Compound 33] |  |
| 42 nM | Nc1cccc(Nc2nc(NCCO)nc(Nc3cccc(N)c3)n2)c1 [Compound 34] |  |
| 37 nM | CN(C[C@H](O)[C@@H](O)[C@H](O)[C@H](O)CO)c1nc(Nc2cccc(N)c2)nc(Nc2cccc(N)c2)n1 [Compound 35] | Activity (ear thickness inhibition) Second Challenge [1]: No effect |
| 68 nM | NCCCCCCNc1nc(Nc2cccc(N)c2)nc(Nc2cccc(N)c2)n1 [Compound 36] |  |
| 312 nM | Nc1cccc(Nc2nc(NCCc3ccccc3N)nc(NCC3CC3)n2)c1 [Compound 38] |  |
| 40 nM | Nc1cccc(Nc2nc(NCCCCO)nc(Nc3cccc(N)c3)n2)c1 [Compound 39] |  |
| 56 nM | Nc1cccc(Nc2nc(NCCO)nc(Nc3ccc(Cl)cc3)n2)c1 [Compound 44] |  |
